Data taken from article PMC9466626, “Discovery of new 1H-pyrazolo[3,4-d]pyrimidine derivatives as anticancer agents targeting EGFR^WT and EGFR^T790M” (Journal of Enzyme Inhibition and Medicinal Chemistry, 2022).
Where two headings read alike, the source gives them in different places.

How the values were obtained:
HCT-116 = assay: In vitro anti-proliferative MTT assay, HCT-116; format: cell-based, human; conditions: for IC50: Homo sapiens, HCT-116, mean of three experiments, read-out: In vitro cytotoxicity IC50, HCT-116; for IC50 / anti-proliferative activity against HCT-116 in words: MTT; for HillSlope (best-fit value), HCT-116 / LogIC50 (best-fit value), HCT-116: supplement IC50 graph
Experimental: The cytotoxic activities of the synthesised compounds were assessed against two human cancer cell lines (lung, A549) and (colon HCT-116) using an MTT assay. These two cell lines were selected in this test due to the overexpression of EGFR in human lung and colon cancer cell lines[48]^,[49]. The tested cells were reported to have a high expression level of EGFR.
In vitro cytotoxicity was carried out for the synthesised compounds against A549, HCT-116, and WI-38 cell lines using the MTT assay protocol[52–55] as described in Supplementary data. […]
(§1) 1.1. In vitro antiproliferative activities
The in vitro antiproliferative activities of all the synthesized compounds against two human tumor cell lines namely, (lung, A549) and (colon HCT-116) and one normal cell line (WI-38) were evaluated quantitatively as described in the literature, using MTT assay protocol . two commercially available drugs (erlotinib) were used in this test as positive controls. The anti-proliferative activity was assessed quantitatively as follows.
(§2) Human cancer cell lines were dropped in 96 -well plates at a density of 3-8 × 10^3 cells/well.
(§3) Next, the wells were incubated for 12 h in a 5% CO 2 incubator at 37 °C. Then, for each well, the growth medium was exchanged with 0.1 ml of fresh medium containing graded concentrations of the test compounds to be or equal DMSO and incubated for two days. Then 10 μl MTT solution ([…]) was added to each well, and the cells were incubated for additional 4 h. The crystals of MTT-formazan were dissolved in 100 μl of DMSO; the absorbance of each well was measured at 490 nm using an automatic ELISA reader system (TECAN, CHE). The IC 50 values were calculated using the nonlinear regression fitting models (Graph Pad, Prism Version 5). The data represented the mean of three independent experiments in triplicate and were expressed as means ± SD. The IC50 value was defined as the concentration at which 50% of the cells could survive.
(§4) The results were expressed as growth inhibitory concentration (IC50) values and […]

A549 = assay: In vitro anti-proliferative MTT assay, A549; format: cell-based, human; conditions: for IC50: Homo sapiens; for HillSlope (best-fit value), A549 / LogIC50 (best-fit value), A549: supplement IC50 graph
Experimental: These two cell lines were selected in this test due to the overexpression of EGFR in human lung and colon cancer cell lines[48]^,[49]. The tested cells were reported to have a high expression level of EGFR. […]
as §1
The in vitro antiproliferative activities of all the synthesized compounds against two human […]
evaluated quantitatively as described in the literature, using MTT assay protocol . two […]
proliferative activity was assessed quantitatively as follows.
as §2
as §3, with “IC50 value was defined as the concentration at which 50% of the cells could survive.” left out
as §4

EGFR^WT = biological target: T1, EGFR^WT (Homo sapiens, UniProt P00533); assay: EGFR^WT kinase inhibitory assay (HTRF); format: biochemical
T1 construct: purchased Sigma
T1 sequence (P00533 25-1210): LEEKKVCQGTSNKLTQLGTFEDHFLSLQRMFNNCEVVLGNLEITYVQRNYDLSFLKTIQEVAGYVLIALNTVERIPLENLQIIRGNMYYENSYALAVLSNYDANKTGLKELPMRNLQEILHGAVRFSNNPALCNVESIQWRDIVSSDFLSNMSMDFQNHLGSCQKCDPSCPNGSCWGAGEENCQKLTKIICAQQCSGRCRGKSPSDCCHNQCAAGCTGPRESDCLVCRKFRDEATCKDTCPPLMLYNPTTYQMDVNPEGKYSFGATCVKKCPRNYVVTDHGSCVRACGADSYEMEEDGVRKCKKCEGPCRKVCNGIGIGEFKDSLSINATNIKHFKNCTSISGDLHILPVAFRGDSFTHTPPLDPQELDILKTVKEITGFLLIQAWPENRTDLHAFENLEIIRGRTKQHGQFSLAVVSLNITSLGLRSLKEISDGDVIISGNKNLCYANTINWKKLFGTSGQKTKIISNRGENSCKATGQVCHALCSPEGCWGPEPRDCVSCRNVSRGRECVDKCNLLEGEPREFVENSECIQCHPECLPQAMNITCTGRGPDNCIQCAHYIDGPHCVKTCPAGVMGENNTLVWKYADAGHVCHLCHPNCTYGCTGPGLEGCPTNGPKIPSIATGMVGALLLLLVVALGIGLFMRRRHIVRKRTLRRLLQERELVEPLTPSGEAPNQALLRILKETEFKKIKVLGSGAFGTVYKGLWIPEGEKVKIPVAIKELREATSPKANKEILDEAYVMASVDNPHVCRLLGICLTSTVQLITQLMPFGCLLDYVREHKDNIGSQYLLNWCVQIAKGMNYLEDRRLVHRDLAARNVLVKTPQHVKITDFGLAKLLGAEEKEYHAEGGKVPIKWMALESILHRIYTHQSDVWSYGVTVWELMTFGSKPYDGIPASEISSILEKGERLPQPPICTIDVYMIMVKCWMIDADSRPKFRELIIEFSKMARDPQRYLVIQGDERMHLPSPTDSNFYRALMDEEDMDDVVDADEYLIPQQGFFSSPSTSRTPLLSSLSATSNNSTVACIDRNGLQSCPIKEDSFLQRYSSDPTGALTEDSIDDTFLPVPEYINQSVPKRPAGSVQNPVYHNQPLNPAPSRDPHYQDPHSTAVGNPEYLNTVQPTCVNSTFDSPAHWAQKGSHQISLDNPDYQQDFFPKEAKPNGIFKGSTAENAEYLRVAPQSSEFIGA
Experimental: In vitro EGFR inhibitory activity was assessed using a Homogeneous time-resolved fluorescence (HTRF) assay[56] as described in Supplementary data.
4.1.1. EGFRWT and EGFRT790M kinase inhibitory assay […]
against four cancer cell lines were further examined for their inhibitory activities against both […]
Homogeneous time resolved fluorescence (HTRF) assay was applied in this test. EGFRWT, EGFRT790M (Sigma). firstly, the EGFRWT and/or EGFRT790M and their substrates were incubated with the tested compounds in enzymatic buffer for 5 min. […]
the enzymatic reaction. The assay was conducted for 30 min at room temperature. The reaction was stopped by addition of detection reagents which contain EDTA. The detection step continued […]
experiments were performed for each concentration. […]

in vitro = conditions: human, WI-38 normal cells
Experimental: (§5) Next, the wells were incubated for 12 h in a 5% CO 2 incubator at 37 °C. Then, for each well, the growth medium was exchanged with 0.1 ml of fresh medium containing graded concentrations of the test compounds to be or equal DMSO and incubated for two days. Then 10 μl MTT solution (5 μg/ml) was added to each well, and the cells were incubated for additional 4 h. The crystals of MTT-formazan were dissolved in 100 μl of DMSO; the absorbance of each well was measured at 490 nm using an automatic ELISA reader system (TECAN, CHE). The IC 50 values were calculated using the nonlinear regression fitting models (Graph Pad, Prism Version 5). The data represented the mean of three independent experiments in triplicate and were expressed as means ± SD.

WI-38 = assay: In vitro cytotoxicity against normal cells (MTT), WI-38; conditions: supplement graph
Experimental: as §5

[1] = A549, MTT, mean of three experiments, read-out: In vitro cytotoxicity IC50, A549
[2] = HTRF, mean of three experiments, read-out: EGFR^WT IC50
[3] = supplement graph, axis Log (nM)
[4] = supplement graph, axis Log (nM), read-out: IC50 (best-fit value of graph), EGFR inhibition

SMILES	IC50 (HCT-116) [µM]	anti-proliferative activity against HCT-116 in words (HCT-116)	HillSlope (best-fit value), HCT-116 (HCT-116)	LogIC50 (best-fit value), HCT-116 (HCT-116)	IC50 (A549; [1]) [µM]	HillSlope (best-fit value), A549 (A549)	LogIC50 (best-fit value), A549 (A549)	IC50 (EGFR^WT; [2]) [nM]	HillSlope (best-fit value), EGFR inhibition (EGFR^WT; supplement graph)	LogIC50 (best-fit value), EGFR inhibition (EGFR^WT; [3])	IC50 (EGFR^WT; [4]) [nM]	IC50 (A549; A549, read-out: IC50 (best-fit value of graph), A549) [µM]	IC50 at 2 days (in vitro) [µM]	HillSlope (best-fit value), WI-38 (WI-38)	LogIC50 (best-fit value), WI-38 (WI-38)
CCNc1nc(Nc2ccccc2)nc2c1cnn2-c1ccccc1 [Compound 7a, N4-Ethyl-N6,1-diphenyl-1H-pyrazolo[3,4-d]pyrimidine-4,6-diamine]	29.6	moderate	-0.4339	1.472	64.4	-0.4567	1.809	–	–	–	–	–	–	–	–
CCCNc1nc(Nc2ccccc2)nc2c1cnn2-c1ccccc1 [Compound 7b, N4-Propyl-N6,1-diphenyl-1H-pyrazolo[3,4-d]pyrimidine-4,6-diamine]	31.5	moderate	-0.4549	1.498	67.4	-0.4700	1.829	–	–	–	–	–	–	–	–
c1ccc(Nc2nc(Nc3ccccc3)c3cnn(-c4ccccc4)c3n2)cc1 [Compound 8, N4,N6,1-Triphenyl-1H-pyrazolo[3,4-d]pyrimidine-4,6-diamine]	24.2	–	-0.4231	1.383	16.8	-0.3605	1.224	26	-0.3385	1.415	26	–	–	–	–
c1ccc(Nc2nc(NC3CCCCC3)c3cnn(-c4ccccc4)c3n2)cc1 [Compound 9, N4-Cyclohexyl-N6,1-diphenyl-1H-pyrazolo[3,4-d]pyrimidine-4,6-diamine]	39.4	–	-0.3946	1.595	29.1	-0.3708	1.463	–	–	–	–	–	–	–	–
NNc1nc(Nc2ccccc2)nc2c1cnn2-c1ccccc1 [Compound 10, 4-Hydrazinyl-N,1-diphenyl-1H-pyrazolo[3,4-d]pyrimidin-6-amine]	18.8	–	-0.3276	1.274	15.7	-0.3765	1.195	23	-0.3619	1.366	23.2	–	–	–	–
COc1ccc(C=NNc2nc(Nc3ccccc3)nc3c2cnn3-c2ccccc2)cc1 [Compound 11a, 4–(2-(4-Methoxybenzylidene)hydrazinyl)-N,1-diphenyl-1H-pyrazolo[3,4-d] pyrimidin-6-amine]	46.2	–	-0.4760	1.664	47.7	-0.4514	1.678	–	–	–	–	–	–	–	–
Clc1ccc(C=NNc2nc(Nc3ccccc3)nc3c2cnn3-c2ccccc2)cc1 [Compound 11b, 4–(2-(4-Chlorobenzylidene)hydrazinyl)-N,1-diphenyl-1H-pyrazolo[3,4-d]pyrimidin-6-amine]	75.1	–	-0.5652	1.876	75.7	-0.3813	1.879	–	–	–	–	–	–	–	–
CC(=NNc1nc(Nc2ccccc2)nc2c1cnn2-c1ccccc1)c1ccccc1 [Compound 12a, N,1-Diphenyl-4–(2-(1-phenylethylidene)hydrazinyl)-1H-pyrazolo[3,4-d]pyrimidin-6-amine]	23.3	–	-0.4063	1.368	13.7	-0.3395	1.137	21	-0.3296	1.321	21	–	–	–	–
CC(=NNc1nc(Nc2ccccc2)nc2c1cnn2-c1ccccc1)c1ccc(C)cc1 [Compound 12c, N,1-Diphenyl-4–(2-(1-(p-tolyl)ethylidene)hydrazinyl)-1H-pyrazolo [3,4-d] pyrimidin-6-amine]	28.7	moderate	-0.4467	1.458	28.8	-0.4080	1.459	–	–	–	–	–	–	–	–
CCNC(=S)NNc1nc(Nc2ccccc2)nc2c1cnn2-c1ccccc1 [Compound 13a, N-Ethyl-2–(1-phenyl-6-(phenylamino)-1H-pyrazolo[3,4-d]pyrimidin-4-yl) hydrazine-1-carbothioamide]	27	moderate	-0.4156	1.432	43.1	-0.4011	1.635	–	–	–	–	–	–	–	–
CCCNC(=S)NNc1nc(Nc2ccccc2)nc2c1cnn2-c1ccccc1 [Compound 13b, 2–(1-Phenyl-6-(phenylamino)-1H-pyrazolo[3,4-d]pyrimidin-4-yl)-N-propyl hydrazine-1-carbothioamide]	36.4	–	-0.3703	1.562	15.4	-0.3921	1.186	–	–	–	–	–	–	–	–
C#Cc1cccc(Nc2ncnc3cc(OCCOC)c(OCCOC)cc23)c1 [Erlotinib, reference compound]	19.2	–	-0.3370	1.284	6.77	-0.3354	0.8309	–	–	–	–	6.78	33.8	-0.4750	1.528
